Entries after “also recorded” stand apart in the source; their conditions may differ. Where two headings read alike, the source gives them in different places.
Assays:
[1] = target: multi-protein complex comprising NMDA receptor (NR1, NR2B, PSD-95) (Mus musculus, UniProt P35438+Q01097); assay: Ligand affinity chromatography of mouse brain DOC extracts (SDS-PAGE, Western blotting); type: binding
[2] = tested on: mouse brain proteins / multi-protein complex (PSD-95, NMDA receptor); assay: Peptide affinity chromatography of mouse brain DOC extracts (SDS-PAGE); type: binding; conditions: 0.5 ml mouse brain DOC extract, Coomassie stained SDS-PAGE
Protocol: Peptides were solubilised and coupled to affigel-10 in methanol at 5 mg/ml resin for 3 days at 4° C. with constant agitation and residual active side chains were blocked with 0.5 M Tris pH8.8 for 1 day at 4° C. followed by transfer of the resin to PBS.
Initial small-scale experiments were done using 0.5 ml brain DOC extract and 25 μl affigel-10 immobilised peptides. The resins were washed four times with 0.5 ml cold DOC buffer after an incubation period of four hours at 4° C. with constant agitation followed by SDS-PAGE analysis. Large scale samples were prepared by adding 0.5 ml NR2B 1477-1482 peptide derivatised affigel-10 with 50 ml DOC extract followed by an incubation overnight at 4° C. with constant agitation. The resin was then transferred into a chromatography column and washed to baseline with approximately 100 ml cold DOC buffer. Bound proteins were released from the resin by boiling for 30 minutes in 4% SDS-containing buffer and 20 μl aliquots were subsequently used for SDS-PAGE analysis and Western blotting (see Example 2).

[3] = tested on: mice with chronic constriction injury (CCI) to the sciatic nerve / naive mice; assay: Thermal hyperalgesia (Hargreaves, paw withdrawal latency) after intrathecal drug treatment; type: in vivo, mouse; conditions: for reversal of thermal hyperalgesia ipsilateral to CCI: wild type mice, intrathecal in 10 μl, (R)-CPP 100 ρmol, peptide 1 n mole, K-93/KN-92 120 pmol
Protocol: (§1) Animals were initially anaesthetised with sodium pentobarbital (Sagatal; 0.01 ml/kg (1:4 in saline, i.p.; Rhône Mérieux, UK) and this was then supplemented with halothane O2 (Zeneca, UK). Under aseptic conditions, using a variation of the method of Bennett and Xie for rat [G. J. Bennett and Y. K. Xie, Pain 33, 87 (1988)], the sciatic nerve was exposed at the mid-thigh level proximal to the sciatic trifurcation. Three chromic catgut ligatures (5.0; Ethicon, Edinburgh) separated by 1 mm were tied loosely to constrict the […] as viewed under 40× magnification. Vascular supply was not compromised. The overlying muscle and skin were sutured and the animals were placed in a recovery cage.
(§2) Animals were tested for 6 days prior to surgery in order to establish stable baseline levels for each test and then every one or two days post-operatively (PO). The responses were compared to the average of the pre-surgery values and the contralateral control. The animals were examined daily to ensure that no autotomy was present.
Thermal hyperalgesia was monitored using Hargreaves' Thermal Stimulator (Linton Instruments, USA). The stimulus was applied to the mid-plantar surface of the hind paw. The withdrawal response was characterised as a brief paw flick. The latency of withdrawal was recorded for the ipsilateral (injured) and the contralateral hindpaws. The means of between 5 and 10 readings were recorded at 3-5 min intervals to ensure no hypersensitivity to the test was established. Mean basal values for pre-operative paw withdrawal latency were typically around 5 sec.
(§3) Baseline measurements were recorded for thermal hyperalgesia (Hargreaves' test) and mechanical allodynia (von Frey filament test) in mice which had undergone the chronic constriction injury and were at the peak of neuropathy. Mice were anaesthetised with halothane and O2. Drugs were injected intrathecally, in 10 μl saline, at the L4 level of the spinal cord using a 25 μl microsyringe [J. L. Hylden and G. L. Wilcox, Eur. J. Pharmacol., 67, 313 (1980)]. The experimenter was blind to the content of the injections so as to eliminate bias, and dye injections (Pontamine Sky Blue) were performed to determine the site of injection. 15 minutes following injection, mice were re-tested using the same procedures and measurements were taken to determine the effects of drug on hyperalgesia and allodynia. Animals were tested every 5 minutes until readings returned to baseline levels.

[4] = tested on: mice with chronic constriction injury (CCI) to the sciatic nerve / naive mice; assay: Mechanical allodynia (von Frey filaments, paw withdrawal threshold) after intrathecal drug treatment; type: in vivo, mouse; conditions: for reversal of mechanical allodynia ipsilateral to CCI: wild type mice, intrathecal in 10 μl, (R)-CPP 100 ρmol, peptide 1 n mole, K-93/KN-92 120 pmol
Protocol: as §1, §2
Mechanical allodynia was measured as the withdrawal threshold to calibrated Semmes-Weinstein von Frey filaments (Stoelting, Wood Dale, Ill.) with a bending force of 0.22-84.96 g. The mice were placed in a small rectangular cage. The filaments were applied to the mid-plantar surface of the hindpaw from beneath until the filament started to bend. This stimulus was repeated 8-10 times at 1-2 sec intervals for both the injured and uninjured hindpaws. The mean threshold required to elicit a withdrawal response was recorded. The filaments were applied in ascending order, and a response was characterised as a brief paw flick. The withdrawal threshold was defined from the lower of two consecutive von Frey filaments that elicited a response. Data were expressed as the threshold indentation pressure (i.e. the bending force/the cross-sectional area at the tip of the filament). Mean basal values for pre-operative paw withdrawal threshold were typically around 600 mN.mm^−2.
as §3

NMDA receptors = conditions: rats, cited from earlier work
CaM kinase II = assay: Ex vivo CaM kinase II activity assay after topical application to dorsal spinal cord; type: in vivo, mouse; conditions: for activation of constitutive CaM kinase II activity, wild type versus PSD-95 mutant: naive mice, topical 15 min, NMDA 500 μM with glycine 100 μM, ionomycin 10 μM
Protocol: Following lumbar L3-6 laminectomy under anaesthesia, mice, which in some cases had previously received chronic constriction injury, were treated by topical application of agents to the dorsal surface of the spinal cord. […] Constitutive (autophosphorylated) and Ca^2+/CM-elicited activity of CaM II kinase [P. I. Hanson et al., Neuron 3, 59 (1989); P. M. Jones and S. J. Persaud, Am. J. Physiol. 274, E708 (1998)] were measured by the following procedure. Samples were rapidly homogenised on ice in 20 mM Na HEPES pH 7.5 with 5% glycerol, 1 mM EGTA, 1 mM dithiothreitol, 1 mM AEBSF, 2 μg.ml^−1 aprotinin, 10 μg.ml^−1 leupeptin, 2 μg.ml^−1 pepstatin, 50 μg.ml^−1 soybean trypsin inhibitor, 25 mM Na β-glycerophosphate, 1 mM Na orthovanadate, 1 mM Na F, 1 μM calyculin A, 1 μM cypermethrin. Following a 30 min incubation on ice with 0.25% CHAPS and clarification, samples were incubated at 4° C. for 2 hours with 3 μg.ml^−1 mouse anti-α-CaM kinase II IgG (clone CBα-2; Zymed) and then with excess Protein G-Sepharose for 1 hour. Aliquots of washed immunoprecipitate were incubated for 20 min at 30° C. (linear range of assay) with 50 μM autocamtide-2, 50 μM ATP (with [^33P] γ-ATP to 0.25 μCi/tube), 10 mM MgCl2 and 8 μg.ml^−1 purified bovine calmodulin (Sigma), in the presence of 0.5 μM PKC-α19-31 and 0.5 μM PKI6-22 amide (to suppress any PKC and PKA-mediated activity respectively) before termination with cold TCA (to 10%), centrifugation and spotting of the supernatant onto P81 phospho-cellulose paper.
Samples were washed extensively in 75 mM H3PO4 and dried before scintillation counting. Constitutive and maximal Ca^2+-evoked activity were measured in the absence and presence of 2 mM CaCl2 respectively. Zero time and substrate-free blanks were less than 2% of maximal activity. Parallel immunoblotting experiments were attempted with phospho-specific antisera for Thr^286-CaM kinase II (the key autophosphorylation site), but gave insufficient signal:noise ratios for further use.

[5] = tested on: hippocampal CA1 region slices (MEK inhibitor)
From the text: Low resistance glass microelectrodes filled with ACSF were placed into stratum radiatum of the hippocampal CA1 region to record field excitatory postsynaptic potentials (fEPSPs) evoked by presynaptic stimulation pulses delivered once every 50 seconds to the Schaffer collateral/commissural fibers via a bipolar nichrome wire stimulating electrode. At the beginning of each experiment the intensity of presynaptic fiber stimulation was adjusted to evoke fEPSPs that were approximately half of the maximal fEPSP amplitude that could be evoked by strong intensity stimulation. High-frequency stimulation-induced LTP was elicited using two trains of 100 Hz stimulation (1 sec. in duration) delivered with an inter-train interval of 10 seconds. To elicit saturating levels of LTP we delivered 6, one-second-long trains of 100 Hz stimulation with an inter-train interval of 5 minutes. For statistical comparisons (unpaired t-tests, two-tailed, N=number of animals) we compared the average amount of potentiation present 55 to 60 minutes after the first high-frequency stimulation train or 40 to 45 minutes after low-frequency trains of stimulation. […] Similar results were obtained with both internal solutions and the results were combined. […] All experiments and initial data analysis were performed blind except for experiments done on 3 H-Ras^−/− mutant mice. […] All values are reported as mean±SEM.

[6] = naive PSD-95 mutant mice, intrathecal NMDA
[7] = naive wild type mice, intrathecal NMDA 0.25 nmol in 10μl
[8] = ligand coupled to PharmaLink resin
[9] = CCI wild type mice, intrathecal

CC(C(O)c1ccc(O)cc1)N1CCC(Cc2ccccc2)CC1 (stereo not drawn) [Ifenprodil]
proteins / multi-protein complex retained on immobilised ligand [1]: capable of binding the multi-protein complex and many other molecules, though to a slightly lower degree than the Arcaine resin

COc1ccc2c(c1)[C@]13CCCC[C@@H]1[C@H](C2)N(C)CC3 [Dextromethorphan]
proteins / multi-protein complex retained on immobilised ligand [1]: only marginal amounts of both NR1 and NR2B were present, but surprisingly a comparatively large amount of PSD-95

RRAIEREEGQLQLCSRHRES [NR1 C-terminal peptide, last 20 amino acids of NR1, 919-938]
proteins bound by peptide covalently linked to affigel-10 [2]: showed no evident binding pattern

COc1ccc(S(=O)(=O)N(CCO)c2ccccc2CN(C)C/C=C/c2ccc(Cl)cc2)cc1 [KN93]
reversal of thermal hyperalgesia ipsilateral to CCI [3]: reversal
reversal of mechanical allodynia ipsilateral to CCI [4]: reversal

NC(CCCP(=O)(O)O)C(=O)O (stereo not drawn) [AP5]
effect on new learning (NMDA receptors; both types of task): severely impaired
effect on retention of a previously learned olfactory discrimination or watermaze task (NMDA receptors): no effect

NC(=O)C[C@H](N)C(=O)O [L-Asparagine]
proteins / multi-protein complex retained on immobilised ligand ([1]; ligand coupled to affigel-10): bound to an array of protein species

CN[C@H](CC(=O)O)C(=O)O [NMDA, N-methyl-D-aspartate]
effect on thermal behavioural responses in PSD-95 mutants [3, 6]: unaffected
induction of thermal hyperalgesia-like behavioural change [3, 7]: bilaterally mimicked
proteins / multi-protein complex retained on immobilised ligand [1]: only marginal quantities of the multi-protein complex were retained
effect on mechanical behavioural responses in PSD-95 mutants [4, 6]: unaffected
induction of mechanical allodynia-like behavioural change [4, 7]: bilaterally mimicked
activation of constitutive CaM kinase II activity, wild type versus PSD-95 mutant (CaM kinase II): equivalent

myristoyl-autocamtide 2-related inhibitory peptide
reversal of thermal hyperalgesia ipsilateral to CCI [3]: reversal
reversal of mechanical allodynia ipsilateral to CCI [4]: reversal

KLSSIESDV [NR2B (1474-1482), NR2B C-terminal peptide]
proteins bound by peptide covalently linked to affigel-10 [2]: did not show any binding pattern similar to the slightly shorter one

NC(N)=NCCCCN=C(N)N [Arcaine]
proteins / multi-protein complex retained on immobilised ligand ([1]; ligand coupled to affigel-10): substantial amount of protein did interact with immobilised Arcaine, including NR1, NR2B and PSD-95

COc1ccc(S(=O)(=O)Nc2ccccc2CN(C)C/C=C/c2ccc(Cl)cc2)cc1 [KN92]
reversal of thermal hyperalgesia ipsilateral to CCI [3]: to a smaller extent

N#CC(=C(/N)Sc1ccccc1N)/C(C#N)=C(\N)Sc1ccccc1N [U0126]
fEPSPs after 5 Hz stimulation ([5]; slices from PSD-95 mutant mice continuously exposed to U0126, N=14 slices): 270±12 % of baseline
effect on induction of LTP by a brief train of 5 Hz stimulation ([5]; wild type slices, 20 μM): strongly suppressed the induction of LTP
fEPSPs after 5 Hz stimulation ([5]; wild type slices, continuously bathed in U0126 (20 *M) at least 60 min before 5 Hz stimulation, N=11 slices): 137±9 % of baseline

C[C@H](CCC(=O)O)C[C@H](C)C[C@H](C)C(=O)/C=C(\O)[C@H](C)C[C@H](C)C/C=C/[C@@H](C)[C@@H](O)[C@@H](C)[C@@H](O)C[C@@H]1CC[C@@](C)([C@H]2CC[C@@](C)([C@@H](C)O)O2)O1 [ionomycin]
activation of constitutive CaM kinase II activity, wild type versus PSD-95 mutant (CaM kinase II): equivalent

NC1CCN(O)C1=O (stereo not drawn) [HA-966, 3-amino-1-hydroxy-2-pyrrolidone]
proteins / multi-protein complex retained on immobilised ligand [1, 8]: found positive for NMDA receptor channel components and the attached PSD-95
proteins / multi-protein complex retained on immobilised ligand ([1]; ligand coupled to affigel-10): found positive for NMDA receptor channel components and the attached PSD-95

NC(CCCP(=O)(O)O)C(=O)O [D-AP5]
proteins / multi-protein complex retained on immobilised ligand [1, 8]: bound to an array of protein species
proteins / multi-protein complex retained on immobilised ligand ([1]; ligand coupled to affigel-10): ineffective in the isolation of any protein

O=C(O)[C@H]1CN(CCCP(=O)(O)O)CCN1 [(R)-CPP]
effect on contralateral responses (thermal) [3, 9]: no effect
effect on paw withdrawal latency in PSD-95 mutants ([3]; PSD-95 mutant mice with CCI, intrathecal 100 ρmol in 10 μl): had no effect; also recorded: unaffected
reversal of thermal hyperalgesia ipsilateral to CCI [3]: completely reversed
effect on contralateral responses (mechanical) [4, 9]: In no case was there any significant effect
effect on paw withdrawal threshold in PSD-95 mutants ([4]; PSD-95 mutant mice with CCI, intrathecal): unaffected
effect in naive or sham-operated mice ([4]; naive or sham-operated wild type or PSD-95 mutant mice (data not shown)): had no effect
reversal of mechanical allodynia ipsilateral to CCI [4]: completely reversed
effect on elevated proportion of constitutive CaM kinase II activity ipsilateral to CCI (CaM kinase II; wild type mice with CCI, topical application): entirely prevented

SIESDV [NR2B (1477-1482)]
proteins bound by peptide covalently linked to affigel-10 [2]: revealed several bands at 75 and 100 kDa; also recorded: capable of not only purifying PSD-95 and other members of this family, but also the NMDA receptor itself

From patent US20030176651A1, “Multiprotein-complex comprising a nmda receptor and uses thereof” (priority 2000, published 2003)
